Laboratory results taken from PMC7367873, “Dissecting the sequence determinants for dephosphorylation by the catalytic subunits of phosphatases PP1 and PP2A” (Nature Communications, 2020).
“Also recorded” adds a separate entry of the source.

Test system: GAB2/GFP-14-3-3β interaction
Assay: GAB2/14-3-3 binding assay (GFP-14-3-3β pull-down, Western blot)
Design: species or system human
Experimental: pEGFP(C1)-14-3-3β or pCMV-GAB2-3FLAG was transfected into HeLa Kyoto cells as described in the respective section for 24 h. Cells were incubated with or w/o 20 nM Calyculin A (# 9902 S, Cell Signaling Technology) in complete growth media for 12 min. Cells were washed twice on ice with cold PBS and after addition of 500 µL lysis buffer (100 mM NaCl, 10 mM Tris, 0.1% IGEPAL, 1 mM EDTA, 1 mM EGTA, 20 nM Calyculin A, 1x cOmplete Mini protease inhibitor cocktail (Sigma), 2 mM DTT, 2 mM MnCl2) cells were scraped from plates, lysed by 10 pushes through an injection needle and the insoluble fraction was pelleted by centrifugation (10 min, 10^4 rcf, 4 °C). Supernatants were then subjected to incubation with 1 µM recombinant PP1c (if not indicated otherwise) or buffer for 1 h at 30 °C. […] Next, we subjected samples to immunoprecipitation/pull-down using 25 µL of α-FLAG M2 magnetic bead slurry (Sigma-Aldrich) or an equal volume of bead-coupled α-GFP nanobodies (EMBL PEPcore Core Facility) for 2 h at 4 °C. Beads were then washed three times with lysis buffer and samples were eluted in 1x SDS sample buffer by heating to 95 °C for 10 min and further analyzed by SDS PAGE for 14-3-3/GAB2 association and phosphorylation status of GAB2-pS210.
For SDS-PAGE, samples were loaded on NuPAGE™ 4-12% Bis-Tris protein gels (Invitrogen) and gel electrophoresis was performed at 180 V constant in 1x MOPS buffer. Samples were transferred onto CN blotting membranes (0.45 µm, neoLab) by wet blotting. Membranes were stained using Ponceau, followed by blocking with Tris-buffered saline with 0.1% Tween (TBS-T) containing 5% (w/v) non-fat milk for 45 min at room temperature. After three washes (5 min), membranes were then incubated with the following antibodies in TBS-T with 5% BSA overnight at 4 °C: α-GFP (1:2000, Abcam, ab6556), α-GAB2 (1:1000, CST, #3239), α-GAB2-pS210 (1:250, Symansis, customized purification), α-FLAG (1:1000, M2, Sigma-Aldrich, F3165), α-pan14-3-3 (1:500, SCBT, sc-629), α-PP1 (1:1000, SCBT, sc-7482), α-PP2A (1:1000, SCBT, sc-130237) or α-6His (1:2000, Abcam, ab9108). Afterwards blots were washed three times in TBS-T and incubated with goat anti-mouse IgG-peroxidase conjugate (1:2500, Sigma, A0168), donkey anti-rabbit IgG-horseradish peroxidase (HRP) conjugate (1:2500, GE Healthcare, GENA934), or rabbit anti-sheep IgG (H + L) HRP conjugate (1:2500, Thermo Fisher Scientific, 61-8620) for 2 h at room temperature. […] All blots were quantified using raw images and ImageLab software (v6.0.1, BioRad): Files were imported and analyzed without further modifications. […] The quantification was exported from the analysis table and measurements of background adjusted band volumes where used for further normalization steps and graphical depiction. […]

## PP1c: recombinant catalytic subunit of PP1
Calyculin A 20 nM in cells, recombinant PP1c in lysate 1 h at 30 °C, PP1c-concentration-dependent, three independent experiments
  interaction of GAB2 with overexpressed GFP-14-3-3β: decreased upon addition of recombinant PP1c in a PP1c–concentration-dependent manner; also recorded: less associated with endogenous GAB2
Recombinant PP1c mixed with equimolar Calyculin A for 5–10 min before addition to lysate
  interaction of GAB2 with GFP-14-3-3β, PP1c pre-inhibited: but not if recombinant PP1c was inhibited prior to treatment
